# Patent US9463252B2, “Auristatin drug linker conjugates” (priority 2008, dated 2016)
# How the values were obtained:
# HCT-116 (CD70−) = assay: Cytotoxicity of Auristatin-Peptide-h1F6 conjugates, CD70- control cell line; format: cell-based
# Text: (§1) The conjugates contain approximately 4 drugs per antibody.
# 786-O = assay: Cytotoxicity of Auristatin-Peptide-h1F6 conjugates, resazurin assay; format: cell-based, human; conditions: for IC50 786-0: Table 4
# Text: as §1
# LP-1 = assay: as above; format: cell-based, human
# Text: as §1
# U251 = assay: as above; format: cell-based; conditions: Table 4, ~4 drugs/Ab
# Text: as §1
# Caki-1 = assay: as above; format: cell-based
# Text: as §1
# L428 = assay: as above; format: cell-based
# Text: as §1
# UMRC-3 = assay: as above; format: cell-based
# Text: as §1
# Caki-2 = assay: as above; format: cell-based
# Protocol: as §1
# Following the procedure described as Examples 57 and 58, Auristatin-Peptide-h1F6 conjugates were evaluated on CD70^+ cell, such as 786-O, Caki-1, Caki-2, and L428. Conjugates contain approximately 4 drugs per antibody.
# [1] = Table 4, h1F6 conjugates, ~4 drugs/Ab
# [2] = Table 8, h1F6 conjugates, D vs L amino acid in second linker position
# [3] = Table 5, h1F6 conjugates, ~4 drugs/Ab
# [4] = Table 7, h1F6 conjugates, AF vs MMAF
# [5] = Table 9, h1F6-Drug(4) conjugates, mono- vs dipeptide linker
# [6] = Table 10, h1F6-Drug(4) conjugates, aryl or alkyl maleimides
Substance,IC50 Caki-2 (Caki-2; [3]),"IC50 HCT-116 (CD70−) (HCT-116 (CD70−); Table 5, ~4 drugs/Ab)",IC50 786-O (786-O; [3]),IC50 Caki-1 (Caki-1; [3]),IC50 L428 (L428; [3]),further results
AF-Asparagine-Valine-diaminoethane-propionyl-maleimide [AF-Asn-Val],,,,,,"IC50 HCT-116 (CD70−) (HCT-116 (CD70−); Table 4, ~4 drugs/Ab): >1 µg/mL; IC50 786-0 (786-O; h1F6 conjugates, ~4 drugs/Ab): 0.0126 µg/mL; IC50 LP-1 (LP-1; [1]): 0.174 µg/mL; IC50 U251 (U251): 0.251 µg/mL; IC50 Caki-1 (Caki-1; [1]): 0.0223 µg/mL; IC50 L428 (L428; [1]): 0.0117 µg/mL; IC50 UMRC-3 (UMRC-3; [1]): 0.0468 µg/mL"
AF-Asparagine-(L)Lysine-diaminoethane-propionyl maleimide [AF-Asn-(L)Lys],,,,,,IC50 786-O (786-O; [2]): 0.009 µg/mL; IC50 LP-1 (LP-1; [2]): 0.501 µg/mL; IC50 Caki-1 (Caki-1; [2]): 0.008 µg/mL; IC50 L-428 (L428; [2]): 0.008 µg/mL; IC50 UMRC-3 (UMRC-3; [2]): 0.026 µg/mL
AM-Tyrosine-(D)Aspartic Acid-diaminoethane-propionyl maleimide [AM-Tyr-(D)Asp],0.071 µg/mL,>1 µg/mL,0.032 µg/mL,0.023 µg/mL,0.03 µg/mL,
AF-Methionine-(D)Aspartic Acid-diaminoethane-propionyl maleimide [AF-Met-(D)Asp],0.035 µg/mL,>1 µg/mL,0.008 µg/mL,0.01 µg/mL,0.011 µg/mL,
AF-Glutamine-(D)Lysine-diaminoethane-propionyl maleimide [AF-Gln-(D)Lys],0.014 µg/mL,>1 µg/mL,0.012 µg/mL,0.011 µg/mL,0.209 µg/mL,
AM-Methionine-(D)Lysine-diaminoethane-propionyl maleimide [AM-Met-(D)Lys],0.251 µg/mL,>1 µg/mL,0.056 µg/mL,0.039 µg/mL,1 µg/mL,
AW-Asparagine-diaminoethane-propionyl maleimide [AW-Asn],0.03 µg/mL,>1 µg/mL,0.018 µg/mL,0.015 µg/mL,0.022 µg/mL,
AF-Arginine-(D)Lysine-diaminoethane-propionyl maleimide [AF-Arg-(D)Lys],0.008 µg/mL,>1 µg/mL,0.008 µg/mL,0.01 µg/mL,0.047 µg/mL,
AF-Asparagine-Proline-diaminoethane-propionyl maleimide [AF-Asn-Pro],0.032 µg/mL,>1 µg/mL,0.011 µg/mL,0.012 µg/mL,0.023 µg/mL,
AF-Citrulline-(D)Lysine-diaminoethane-propionyl maleimide [AF-Cit-(D)Lys],0.016 µg/mL,>1 µg/mL,0.01 µg/mL,0.011 µg/mL,0.047 µg/mL,
AF-Tyrosine-Valine-diaminoethane-propionyl-maleimide [AF-Tyr-Val],,,,,,"IC50 HCT-116 (CD70−) (HCT-116 (CD70−); Table 4, ~4 drugs/Ab): >1 µg/mL; IC50 786-0 (786-O; h1F6 conjugates, ~4 drugs/Ab): 0.0037 µg/mL; IC50 LP-1 (LP-1; [1]): 0.034 µg/mL; IC50 U251 (U251): 0.0468 µg/mL; IC50 Caki-1 (Caki-1; [1]): 0.007 µg/mL; IC50 L428 (L428; [1]): 0.003 µg/mL; IC50 UMRC-3 (UMRC-3; [1]): 0.0195 µg/mL"
AF-AsparticAcid-Valine-Diaminoethane-Propionyl-Maleimide [AF-Asp-Val],,,,,,"IC50 HCT-116 (CD70−) (HCT-116 (CD70−); Table 4, ~4 drugs/Ab): >1 µg/mL; IC50 786-0 (786-O; h1F6 conjugates, ~4 drugs/Ab): 0.018 µg/mL; IC50 LP-1 (LP-1; [1]): 0.234 µg/mL; IC50 U251 (U251): 0.407 µg/mL; IC50 Caki-1 (Caki-1; [1]): 0.025 µg/mL; IC50 L428 (L428; [1]): 0.018 µg/mL; IC50 UMRC-3 (UMRC-3; [1]): 0.054 µg/mL"
MMAF-Methionine-(D)Lysine-diaminoethane-propionyl maleimide [MMAF-Met-(D)Lys],,,,,,IC50 786-O (786-O; [4]): 0.01 µg/mL; IC50 LP-1 (LP-1; [4]): >1 µg/mL; IC50 Caki-1 (Caki-1; [4]): 0.008 µg/mL; IC50 L-428 (L428; [4]): 0.123 µg/mL; IC50 UMRC-3 (UMRC-3; [4]): 0.1 µg/mL
AW-Tyrosine-(D)Aspartic acid-diaminoethane-propionyl maleimide [AW-Tyr-(D)Asp],0.033 µg/mL,>1 µg/mL,0.018 µg/mL,0.016 µg/mL,0.021 µg/mL,
AF-Methionine-diaminoethane-propionyl maleimide,,,,,,IC50 786-O (786-O; [5]): 0.008 µg/mL; IC50 LP-1 (LP-1; [5]): 0.11 µg/mL; IC50 Caki-1 (Caki-1; [5]): 0.006 µg/mL; IC50 L-428 (L428; [5]): 0.003 µg/mL; IC50 UMRC-3 (UMRC-3; [5]): 0.017 µg/mL
AF-Homo-β-Phenylalanine-(D)Aspartic Acid-diaminoethane-propionyl maleimide [AF-hPhe-(D)Asp],>1 µg/mL,>1 µg/mL,0.01 µg/mL,>1 µg/mL,0.029 µg/mL,
AF-Isoleucine-Valine-diaminoethane-propionyl-maleimide [AF-Ile-Val],,,,,,"IC50 HCT-116 (CD70−) (HCT-116 (CD70−); Table 4, ~4 drugs/Ab): >1 µg/mL; IC50 786-0 (786-O; h1F6 conjugates, ~4 drugs/Ab): 0.0034 µg/mL; IC50 LP-1 (LP-1; [1]): 0.019 µg/mL; IC50 U251 (U251): 0.0446 µg/mL; IC50 Caki-1 (Caki-1; [1]): 0.0037 µg/mL; IC50 L428 (L428; [1]): 0.0025 µg/mL; IC50 UMRC-3 (UMRC-3; [1]): 0.0195 µg/mL"
AF-Lysine-(D)Lysine-diaminoethane-propionyl maleimide [AF-Lys-(D)Lys],0.009 µg/mL,>1 µg/mL,0.009 µg/mL,0.008 µg/mL,0.037 µg/mL,
AM-Asparagine-(D)Lysine-diaminoethane-benzoyl maleimide [AM-Asn-(D)Lys-aryl maleimide],,,,,,IC50 Caki-2 (Caki-2; [6]): 0.017 µg/mL; IC50 786-O (786-O; [6]): 0.016 µg/mL; IC50 Caki-1 (Caki-1; [6]): 0.01 µg/mL; IC50 L428 (L428; [6]): 0.023 µg/mL
AF-Methionine-(D)Valine-diaminoethane-propionyl maleimide [AF-Met-(D)Val],0.032 µg/mL,>1 µg/mL,0.005 µg/mL,0.006 µg/mL,0.008 µg/mL,
AF-Tyrosine-(D)Lysine-diaminoethane-propionyl maleimide [AF-Tyr-(D)Lys],0.012 µg/mL,>1 µg/mL,0.009 µg/mL,0.011 µg/mL,0.01 µg/mL,
AM-Asparagine-diaminoethane-propionyl maleimide [AM-Asn],0.063 µg/mL,>1 µg/mL,0.03 µg/mL,0.031 µg/mL,0.032 µg/mL,
AW-Methionine-(D)Lysine-diaminoethane-benzoyl maleimide [AW-Met-(D)Lys-aryl-maleimide],,,,,,IC50 Caki-2 (Caki-2; [6]): 0.012 µg/mL; IC50 786-O (786-O; [6]): 0.012 µg/mL; IC50 Caki-1 (Caki-1; [6]): 0.015 µg/mL; IC50 L428 (L428; [6]): >1 µg/mL
AF-Asparagine-(D)Lysine-(D)Lysine-diaminoethane-propionyl maleimide [AF-Asn-(D)Lys-(D)Lys],0.03 µg/mL,>1 µg/mL,0.009 µg/mL,0.01 µg/mL,0.022 µg/mL,
AF-Methionine-(D)Lysine-(D)Lysine-diaminoethane-propionyl maleimide [AF-Met-(D)Lys-(D)Lys],0.025 µg/mL,>1 µg/mL,0.008 µg/mL,0.012 µg/mL,>1 µg/mL,
AW-Asparagine-(D)Lysine-diaminoethane-propionyl maleimide [AW-Asn-(D)Lys],0.026 µg/mL,>1 µg/mL,0.016 µg/mL,0.015 µg/mL,0.019 µg/mL,
AF-Methionine-(D)Methionine-diaminoethane-propionyl maleimide [AF-Met-(D)Met],0.013 µg/mL,>1 µg/mL,0.004 µg/mL,0.005 µg/mL,0.004 µg/mL,
AF-Methionine-Proline-diaminoethane-propionyl maleimide [AF-Met-Pro],0.025 µg/mL,>1 µg/mL,0.008 µg/mL,0.015 µg/mL,0.008 µg/mL,
AF-Methionine-(L)Lysine-diaminoethane-propionyl maleimide [AF-Met-(L)Lys],,,,,,IC50 786-O (786-O; [2]): 0.007 µg/mL; IC50 LP-1 (LP-1; [2]): 0.095 µg/mL; IC50 Caki-1 (Caki-1; [2]): 0.004 µg/mL; IC50 L-428 (L428; [2]): 0.003 µg/mL; IC50 UMRC-3 (UMRC-3; [2]): 0.022 µg/mL
AF-Asparagine-(D)Aspartic Acid-diaminoethane-propionyl maleimide [AF-Asn-(D)Asp],0.071 µg/mL,>1 µg/mL,0.007 µg/mL,0.007 µg/mL,0.014 µg/mL,
